What was measured:
Solubility in water = type: physicochemical
Description: 37.7 g (0.1 mol) of sodium 11,15-dihydroxy-9-oxoprost-13-en-1-oate was dissolved in 100 ml of acetonitrile. 26.1 g (0.1 mol) of 2-Bromo-N,N-diethylethylamine.HBr and 8.6 g of sodium bicarbonate were added into the reaction mixture. The mixture was stirred for overnight at RT. The solvents were evaporated off. 250 ml of ethyl acetate was added into the reaction mixture and the mixture was washed with water (3×100 ml). The organic solution was dried over anhydrous sodium sulfate. Sodium sulfate was removed by filtration. 6 g of acetic acid was added into the reaction mixture with stirring. Hexane (200 ml) was added. The solid product was collected by filtration. After drying, it yielded 42 g of the desired product (81.8%). Hygroscopic product; Solubility in water: 100 mg/ml; Elementary analysis: C28H51NO7; MW: 513.37. Calculated % C, 65.47; H, 10.01; N, 2.73; O, 21.80. Found % C, 65.42; H, 10.03; N, 2.70; O, 21.85.
43.7 g (0.1 mol) of 11,15-diacetoxy-9-oxoprosta-5,13-dien-1-oic acid was dissolved in 300 ml of chloroform. 20.6 g of N,N′-Dicyclohexylcarbodiimide was added into the reaction mixture. 11.7 g of N,N-diethylaminoethylamine was added into the reaction mixture. The mixture was stirred for 3 hours at RT. The solid was removed by filtration. The chloroform solution was washed with 5% NaHCO3 (2×100 ml) and water (3×100 ml). The organic solution was dried over anhydrous sodium sulfate. Sodium sulfate was removed by filtration. 6 g of acetic acid was added into the reaction mixture with stirring. Hexane (200 ml) was added. The solid product was collected by filtration. After drying, it yielded 45 g of the desired product (85.8%). Hygroscopic product; Solubility in water: 100 mg/ml; Elementary analysis: C34H59NO9S; MW: 657.90. Calculated % C, 62.07; H, 9.04; N, 2.13; O, 21.89; S, 4.87. Found % C, 62.02; H, 9.06; N, 2.11; O, 21.95; S, 4.86.
49.9 g (0.1 mol) of 9,11,15-triacetoxyprost-13-en-1-oic acid was dissolved in 300 ml of chloroform. 20.6 g of N,N′-Dicyclohexylcarbodiimide was added into the reaction mixture. 13.1 g of dimethylaminoethyl mercaptan was added into the reaction mixture. The mixture was stirred for 3 hours at RT. The solid was removed by filtration. The chloroform solution was washed with 5% NaHCO3 (2×100 ml) and water (3×100 ml). The organic solution was dried over anhydrous sodium sulfate. Sodium sulfate was removed by filtration. 6 g of acetic acid was added into the reaction mixture with stirring. Hexane (200 ml) was added. The solid product was collected by filtration. After drying, it yielded 45 g of the desired product (85.8%). Hygroscopic product; Solubility in water: 100 mg/ml; Elementary analysis: C32H53NO9; MW: […] Calculated % C, 64.51; H, 8.97; N, 2.35; O, 24.17. Found % C, 64.47; H, 8.99; N, 2.34; O, 24.20.
37.7 g (0.1 mol) of sodium 9,11,15-trihydroxyprosta-5,13-dien-1-oate was dissolved in 100 ml of acetonitrile. 39 g (0.15 mol) of 2-Bromo-N,N-diethylethylamine.HBr in ethyl acetate was added into the reaction mixture. The mixture was stirred for 3 h at RT. Then 8 g of sodium bicarbonate was added into the reaction mixture. The mixture is stirred for another 2 h at RT. The solvents were evaporated off. 250 ml of ethyl acetate was added into the reaction mixture and the mixture was washed with water (3×100 ml). The organic solution was dried over anhydrous sodium sulfate. Sodium sulfate was removed by filtration. 6 g of acetic acid was added into the reaction mixture with stirring. […] Calculated % C, 65.47; H, 10.01; N, 2.73; O, 21.80. […]

[1] = pH 7.4
Description: The penetration rates of HPPs and their parent drugs through human skin were measured in vitro by modified Franz cells. The Franz cells have two chambers, the top sample chamber and the bottom receiving chamber. The human skin tissue (360-400 μm thick) that separates the top and the receiving chambers was isolated from the anterior or posterior thigh areas.
The compound tested (2 mL, 20% in 0.2 M phosphate buffer, pH. 7.4) were added to the sample chamber of a Franz cell. The receiving chamber contains 10 ml of 2% bovine serum albumin in saline which was stirred at 600 rpm. The cumulative amounts of the tested compounds penetrating the skin versus time were determined by high-performance liquid chromatography (HPLC) method.

Solubility in water (Solubility in water): 100 mg/mL
In vitro penetration rate (apparent flux), prodrug compounds [1]: 0.80 mg/cm^2/h
Structure (SMILES): CC(=O)O.CCCCCC(C)(O)C=C[C@H]1C(O)CC(O)[C@@H]1CC=CCCCC(=O)OCCN(CC)CC (some centres unmarked) [N,N-diethylaminoethyl 9,11,15-trihydroxy-15-methylprosta-5,13-dien-1-oate.AcOH]

From patent US11555014B2, “High penetration prodrug compositions of prostaglandins and related compounds” (Techfields Pharma Co., Ltd., priority 2006, dated 2023)
